Here are results for three compounds from patent US20250082914A1 (priority 2022, published 2025).

Data set [1] in a line: In vitro drug release, USP device type II, SGF then SIF. The class given is physicochemical. Particulars: after switch from SGF pH 1.2 (30 min) to SIF pH 6.8; 37° C., 100 rpm; 8 mm device, 20 mg desmopressin, 40 mg PVP, enteric capsule. As to the method: The temperature was set at 37° C., and the rotating speed was at 100 rpm. Aliquots of 1 mL were sampled at the predetermined time points and the sampled volume was replaced with fresh SGF or SIF buffer. Quantification was carried by HPLC (VWR Hitachi Chromaster system with 5160 pump, 5260 autosampler, 5310 column oven and 5430 diode array detector, VWR International, Radnor, PA) with the UV wavelength set at 280 nm. […] At the intestinal pH, desmopressin started being released when the solvent was switched to SIF and was completely released within about 20 minutes. […] The drug release kinetics is also controlled with the polymeric excipient.

The conditions of data set [2]: in the presence of permeation enhancers; cited from earlier work.

`NC(=O)CC[C@@H]1NC(=O)[C@H](Cc2ccccc2)NC(=O)[C@H](Cc2ccc(O)cc2)NC(=O)CCSSC[C@@H](C(=O)N2CCC[C@H]2C(=O)N[C@H](CCCN=C(N)N)C(=O)NCC(N)=O)NC(=O)[C@H](CC(N)=O)NC1=O` [desmopressin]: the “time to complete release of desmopressin” value in data set [1] was at most 20 min.
Take `C[C@@H](O)[C@@H]1NC(=O)[C@H](CCCCN)NC(=O)[C@@H](Cc2c[nH]c3ccccc23)NC(=O)[C@H](Cc2ccccc2)NC(=O)[C@@H](NC(=O)[C@H](N)Cc2ccccc2)CSSC[C@@H](C(=O)N[C@H](CO)[C@@H](C)O)NC1=O` [octreotride]: the oral bioavailability in data set [2] is on record as 0.5-1%.
As to semaglutide, in data set [2], the oral bioavailability is about 1%.
